Test results reported in ChEMBL document CHEMBL3217730, “Determination of structural requirements of influenza neuraminidase type A inhibitors and binding interaction analysis with the active site of A/H1N1 by 3D-QSAR CoMFA and CoMSIA modeling” (Medchemcomm, 2011).

Biological target: Neuraminidase (Influenza A virus, UniProt B4URF0)
Test: Inhibition of Influenza virus neuraminidase A
Set-up: species or system unidentified influenza virus

Neuraminidase, sequence (B4URF0 whole entry): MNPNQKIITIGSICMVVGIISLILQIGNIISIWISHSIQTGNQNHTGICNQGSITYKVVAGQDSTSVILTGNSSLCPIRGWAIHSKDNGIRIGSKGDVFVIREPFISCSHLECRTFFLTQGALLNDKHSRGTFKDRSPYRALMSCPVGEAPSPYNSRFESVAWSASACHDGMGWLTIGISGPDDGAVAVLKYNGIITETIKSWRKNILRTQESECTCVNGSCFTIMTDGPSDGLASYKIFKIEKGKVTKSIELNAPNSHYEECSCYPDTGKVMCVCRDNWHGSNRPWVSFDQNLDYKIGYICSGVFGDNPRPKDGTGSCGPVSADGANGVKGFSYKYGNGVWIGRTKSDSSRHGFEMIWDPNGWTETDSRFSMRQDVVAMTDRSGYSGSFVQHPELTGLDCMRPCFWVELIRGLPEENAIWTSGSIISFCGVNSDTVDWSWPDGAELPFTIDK

| SMILES | IC50 (read-out: IC50) | IC50 (read-out: pIC50 (converted)) | pIC50 |
| --- | --- | --- | --- |
| CC[C@@H](C)O[C@@H]1C=C(C(=O)O)C[C@H](NC(=N)N)[C@H]1NC(C)=O | 0.5 µM | 0.0005 µM | – |
| CC(=O)N[C@@H]1[C@@H](N)CC(C(=O)O)=C[C@H]1Oc1ccccc1 | 530 µM | 0.531 µM | – |
| CCC(C)O[C@@H]1C=C(C(=O)O)C[C@H](N)[C@H]1NC(C)=O (stereo partly drawn) | 10 µM | – | – |
| CCO[C@@H]1C=C(C(=O)O)C[C@H](N)[C@H]1NC(C)=O | 2000 µM | 2 µM | – |
| CCCCCCC[C@H](CC)O[C@@H]1C=C(C(=O)O)C[C@H](N)[C@H]1NC(C)=O | 1 µM | 0.001 µM | – |
| CCCO[C@@H]1C=C(C(=O)O)C[C@H](N=C(N)N)[C@H]1NC(C)=O | 2 µM | 0.002 µM | – |
| CCCCCCCCCCO[C@@H]1C=C(C(=O)O)C[C@H](N)[C@H]1NC(C)=O | 600 µM | 0.601 µM | – |
| C=CC[C@H](CC)O[C@@H]1C=C(C(=O)O)C[C@H](N)[C@H]1NC(C)=O | 1 µM | 0.001 µM | – |
| CO[C@@H]1C=C(C(=O)O)C[C@H](N)[C@H]1NC(C)=O | 3700 µM | 3.71 µM | – |
| CC(=O)N[C@H]1[C@H](O)C=C(C(=O)O)C[C@@H]1N=C(N)N | 100 µM | 0.1 µM | – |
| CC[C@@H](CCC1CCCCC1)O[C@@H]1C=C(C(=O)O)C[C@H](N)[C@H]1NC(C)=O | 1 µM | 0.001 µM | – |
| CCC(CC)C(=O)N1C[C@@H](N)[C@@H](C(=O)O)C1 | 22 µM | – | – |
| CCN(CC)C(=O)N1C[C@@H](N)[C@@H](C(=O)O)C1 | 25 µM | – | – |
| CCCN(CCC)C(=O)N1C[C@@H](N)[C@@H](C(=O)O)C1 | 32 µM | – | – |
| CCN(C(=O)N1C[C@@H](N)[C@@H](C(=O)O)C1)C(C)C | 1.6 µM | 1.06 µM | – |
| CC(C)N(C(=O)N1C[C@@H](N)[C@@H](C(=O)O)C1)C(C)C | 4 µM | – | – |
| CC(C)N(CCO)C(=O)N1C[C@@H](N)[C@@H](C(=O)O)C1 | 21 µM | – | – |
| CC(C)N(CCCC(=O)O)C(=O)N1C[C@@H](N)[C@@H](C(=O)O)C1 | 19 µM | – | – |
| CC(C)N(CCN)C(=O)N1C[C@@H](N)[C@@H](C(=O)O)C1 | 46 µM | – | – |
| CCN(C(=O)N1C[C@H](C(=O)O)[C@H](NC(=N)N)C1)C(C)C | 13 µM | – | – |

| SMILES | IC50 (read-out: IC50) | IC50 (read-out: pIC50 (converted)) | pIC50 |
| --- | --- | --- | --- |
| CCN(C(=O)N1C[C@H](N)[C@H](C(=O)O)[C@@H]1CNC(C)=O)C(C)C | 7.5 µM | – | – |
| CCC(=O)NC[C@H]1[C@@H](C(=O)O)[C@@H](N)CN1C(=O)N(CC)C(C)C | 16 µM | – | – |
| C=CC(=O)NC[C@H]1[C@@H](C(=O)O)[C@@H](N)CN1C(=O)N(CC)C(C)C | 96 µM | – | – |
| CCN(C(=O)N1C[C@H](N)[C@H](C(=O)O)[C@@H]1CNC(=O)C(F)(F)F)C(C)C | 0.28 µM | – | – |
| CCN(C(=O)N1C[C@H](N)[C@H](C(=O)O)[C@@H]1CNS(C)(=O)=O)C(C)C | 130 µM | – | – |
| CCC(CC)NC(=O)[C@@H](NC(C)=O)[C@H]1CC(C(=O)O)C[C@@H]1NC(=N)N (stereo partly drawn) | 0.06 µM | – | – |
| CCC(CC)NC(=O)[C@H](NC(C)=O)[C@H]1CC(C(=O)O)C[C@@H]1NC(=N)N (stereo partly drawn) | 25 µM | – | – |
| CCN(CC)C(=O)[C@@H](NC(C)=O)[C@H]1CC(C(=O)O)C[C@@H]1NC(=N)N (stereo partly drawn) | 0.07 µM | 0.00701 µM | – |
| CCCN(CCC)C(=O)[C@@H](NC(C)=O)[C@H]1CC(C(=O)O)C[C@@H]1NC(=N)N (stereo partly drawn) | 0.043 µM | – | – |
| CC[C@H](C)O[C@@H]1C=C(C(=O)O)C[C@H](N)[C@H]1NC(C)=O | 9 µM | 0.00902 µM | – |
| CC[C@H](C)O[C@@H]1C=C(C(=O)O)C[C@H](NC(=N)N)[C@H]1NC(C)=O | 0.5 µM | 0.0005 µM | – |
| CC(=O)N[C@@H]1[C@@H](N)CC(C(=O)O)=C[C@H]1OC(C)C | 0.001 µM | – | – |
| CC(=O)N[C@H]1[C@H](OC(C)C)C(C)=C(C(=O)O)C[C@@H]1N | 2.3 µM | – | – |
| CC(=O)N[C@H]1[C@H](OC(C)C)C(F)=C(C(=O)O)C[C@@H]1N | 0.003 µM | – | – |
| CC(=O)N[C@@H]1[C@@H](N)[C@H](C)C(C(=O)O)=C[C@H]1OC(C)C | 1.5 µM | – | – |
| CCCC[C@@H](NC(C)=O)[C@@H]1CC(C(=O)O)C[C@@H]1NC(=N)N (stereo partly drawn) | 0.013 µM | – | – |
| CCCC[C@@H](NC(C)=O)[C@@H]1CC(C(=O)O)C[C@H]1NC(=N)N (stereo partly drawn) | 14.6 µM | – | – |
| CCCN(CCC)C(=O)[C@@H](NC(C)=O)[C@H]1C[C@](O)(C(=O)O)C[C@@H]1NC(=N)N | 4.9 µM | – | – |
| CCCN(CCC)C(=O)[C@@H](NC(C)=O)[C@H]1C[C@@](O)(C(=O)O)C[C@@H]1NC(=N)N | 2300 µM | – | – |
| CCCCCCCCCO[C@@H]1C=C(C(=O)O)C[C@H](N)[C@H]1NC(C)=O | 210 µM | 0.21 µM | – |

| SMILES | IC50 (read-out: IC50) | IC50 (read-out: pIC50 (converted)) | pIC50 |
| --- | --- | --- | --- |
| CC[C@@H](CC1CCCCC1)O[C@@H]1C=C(C(=O)O)C[C@H](N)[C@H]1NC(C)=O | 16 µM | 0.016 µM | – |
| CC(C)N(CCCCC(=O)O)C(=O)N1C[C@@H](N)[C@@H](C(=O)O)C1 | 1.3 µM | – | – |
| CC(C)N(CCc1ccccn1)C(=O)N1C[C@@H](N)[C@@H](C(=O)O)C1 | 1.3 µM | – | – |
| CC[C@@H](Cc1ccccc1)O[C@@H]1C=C(C(=O)O)C[C@H](N)[C@H]1NC(C)=O | 620 µM | 0.621 µM | – |
| CC(C)N(CCCO)C(=O)N1C[C@@H](N)[C@@H](C(=O)O)C1 | – | – | 5.677 |
| CC(C)N(CCCCCO)C(=O)N1C[C@@H](N)[C@@H](C(=O)O)C1 | 2 µM | – | – |
| CC(=O)N[C@@H]1[C@@H](N)CC(C(=O)O)=C[C@H]1OC1CCCCC1 | 60 µM | 0.0601 µM | – |
| CCCO[C@@H]1C=C(C(=O)O)C[C@H](N)[C@H]1NC(C)=O | 180 µM | 0.18 µM | – |
| CC[C@H](CCc1ccccc1)O[C@@H]1C=C(C(=O)O)C[C@H](N)[C@H]1NC(C)=O | 12 µM | 0.012 µM | – |
| CC(=O)N[C@@H]1[C@@H](N)CC(C(=O)O)=C[C@H]1OCC(C)C | 200 µM | 0.2 µM | – |
| CCCCO[C@@H]1C=C(C(=O)O)C[C@H](N)[C@H]1NC(C)=O | 300 µM | 0.301 µM | – |
| CC(=O)N[C@@H]1[C@@H](N)CC(C(=O)O)=C[C@H]1OCCCc1ccc(-c2ccccc2)cc1 | 90 µM | 0.0902 µM | – |
| CC(=O)N[C@H]1[C@H](O)C=C(C(=O)O)C[C@@H]1N | 6300 µM | – | – |
| CC[C@@H](CCc1ccccc1)O[C@@H]1C=C(C(=O)O)C[C@H](N)[C@H]1NC(C)=O | 0.3 µM | 0.000301 µM | – |
| CCCCCCCCO[C@@H]1C=C(C(=O)O)C[C@H](N)[C@H]1NC(C)=O | 180 µM | 0.18 µM | – |
| CCCCO[C@@H]1C=C(C(=O)O)C[C@H](N=C(N)N)[C@H]1NC(C)=O | 3 µM | 0.00301 µM | – |
| CCCCCCCO[C@@H]1C=C(C(=O)O)C[C@H](N)[C@H]1NC(C)=O | 270 µM | 0.27 µM | – |
| CCCCCCO[C@@H]1C=C(C(=O)O)C[C@H](N)[C@H]1NC(C)=O | 150 µM | 0.15 µM | – |
| CCCCCO[C@@H]1C=C(C(=O)O)C[C@H](N)[C@H]1NC(C)=O | 200 µM | 0.2 µM | – |
